# Assay results as given in publication PMC11784099 (Journal of Virology, 2024).
# Read-outs that look alike come from different tables or passages of the source.
# What was measured:
# in vitro = conditions: pig
# [1] = system: cGAS/STING signaling pathway; type: cell-based, pigs
# [2] = system: Pseudorabies virus (Ra strain); test: microbe, parasite or virus in culture; type: cell-based
# [3] = system: IRF3 phosphorylation (cGAS/STING signaling pathway); type: cell-based, pigs
# cGAMP production = type: cell-based, pigs
# [4] = system: type I interferon signaling pathway; design: species or system mice; conditions: mouse, in vivo
# IFN-β = system: IFN-β; design: species or system mice; conditions: mouse, in vivo
# PRV [5] = system: PRV; design: species or system mice; conditions: mouse, in vivo
# IFN-β promoter = type: cell-based
# [6] = system: cGAS/STING signaling pathway; type: cell-based
# [7] = system: JAK/STAT signaling pathway; type: cell-based, pigs
# PRV [8] = conditions: mouse, in vivo; cited from earlier work
# [9] = system: JAK/STAT signaling pathway; type: cell-based, pigs; remark: listed apart in the source
# p-IRF3 = type: cell-based, pigs
# [10] = system: type I interferon signaling pathway; design: species or system mice; conditions: mouse, in vivo; remark: listed apart in the source
# [11] = Suid alphaherpesvirus 1, PK-15, 1 h
compound,measurement,setting,value
COc1cc2c(cc1OC)-c1cc3ccc(OC)c(OC)c3c[n+]1CC2 [Palmatine],CC50,PK-15 cells,1250 µM
O=c1c(O)c(-c2ccc(O)c(O)c2)oc2cc(O)cc(O)c12 [Quercetin],CC50,in vitro,449 µM
same,CC50,PK-15 cells; pig,890 µM
COc1ccc(-c2coc3cc(O)cc(O)c3c2=O)cc1 [Biochanin A],CC50,PK-15 cells,382 µM
O=C1C[C@@H](c2ccc(O)cc2)Oc2cc(O)cc(O)c21 [Naringenin],mRNA expression level of cGAS,[1],significantly enhance
same,mRNA level of IRF3,[1],no discernible differences
same,mRNA levels of IFN-β,[1],significantly elevate
O=c1c(O)c(-c2cc(O)c(O)c(O)c2)oc2cc(O)cc(O)c12 [Myricetin],IC50,[2]; [11],42.7 µM
same,levels of p-IRF3 and p-IRF3/IRF3,[3],significantly elevated
same,increase in cGAMP production compared with the blank group,cGAMP production,~1.5 fold
same,CC50,in vitro,> 1000 µM
same,"expression levels of antiviral effectors MX1, OAS1 and ISG15 in brain and kidney",[4],higher expression levels
same,production of IFN-β in tissues (ELISA),IFN-β,significantly promote
same,mortality rate at 4 dpi,PRV [5],70%
same,"expression level of the IFN-β promoter, ratio to infected control group",IFN-β promoter,~2 fold
same,"protein expressions of cGAS, STING, TBK1, IRF3 and p-IRF3",[6],significantly increase
same,"transcriptional levels of JAK1, STAT1, IRF9, ISG15, ISG56 and ISG54",[7],notable elevation
same,mortality rate at 4 dpi,PRV [8],0%
same,mortality rate at 5 dpi,PRV [8],30%
same,reduction in viral copies in the kidney,PRV [8],up to 80 fold
same,effect proteins ISG15 and OAS1,[9],significantly increased
same,"protein levels of STAT1, p-STAT1 and p-STAT1/STAT1",[9],significantly higher
same,mRNA expression level of cGAS,[1],significantly enhance
same,mRNA level of IRF3,[1],significantly increase
same,mRNA level of STING,[1],significantly increase
same,mRNA levels of IFN-β,[1],significantly elevate
same,"mRNA levels of cGAS, STING, TBK1, IRF3, IRF7 and IFN-β",[1],all increased
same,total amount of IRF3 phosphorylation (fluorescence intensity),p-IRF3,significant enhancement
same,"transcriptional levels of cGAS, STING, TBK1, IRF3, IRF7, IFN-β, ISG56 and ISG54 in heart, liver, spleen, lung and kidney",[10],significantly higher
O=C(O)[C@H]1O[C@@H](Oc2cc3oc(-c4ccc(O)cc4)cc(=O)c3c(O)c2O)[C@H](O)[C@@H](O)[C@@H]1O [Scutellarin],CC50,in vitro,> 213 µM
COc1ccc(-c2coc3cc(O)ccc3c2=O)cc1 [Formononetin],CC50,in vitro,228 µM
COc1cc(C2Oc3cc([C@H]4Oc5cc(O)cc(O)c5C(=O)[C@@H]4O)ccc3OC2CO)ccc1O (some centres unmarked) [Silibinin],IC50,[2]; [11],203 µM
same,CC50,in vitro,392 µM
COc1ccc([C@@H]2CC(=O)c3c(O)cc(O[C@@H]4O[C@H](CO[C@@H]5O[C@@H](C)[C@H](O)[C@@H](O)[C@H]5O)[C@@H](O)[C@H](O)[C@H]4O)cc3O2)cc1O [Hesperidin],CC50,PK-15 cells,> 238 µM
Pueraria,CC50,PK-15 cells,> 461 µM
CC1(C)[C@@H](O[C@H]2O[C@H](C(=O)O)[C@@H](O)[C@H](O)[C@H]2O[C@@H]2O[C@H](C(=O)O)[C@@H](O)[C@H](O)[C@H]2O)CC[C@]2(C)[C@H]3C(=O)C=C4[C@@H]5C[C@@](C)(C(=O)O)CC[C@]5(C)CC[C@@]4(C)[C@]3(C)CC[C@@H]12 [glycyrrhizic acid],IC50,[2]; [11],23.2 to 323 µM
O=c1cc(-c2ccc(O)c(O)c2)oc2cc(O)cc(O)c12 [Lutelin],IC50,[2]; [11],36.9 µM
same,CC50,in vitro,195 µM
same,mRNA expression level of cGAS,[1],significantly enhance
same,mRNA level of IRF3,[1],no discernible differences
same,mRNA level of STING,[1],significantly increase
Oc1ccc(/C=C/c2cc(O)cc(O)c2)cc1 [resveratrol],IC50,[2]; [11],23.2 to 323 µM
OC[C@H]1O[C@@H](Oc2cc(O)cc(/C=C/c3ccc(O)cc3)c2)[C@H](O)[C@@H](O)[C@@H]1O [Polydatin],CC50,in vitro,> 466 µM
COc1ccc([C@@H]2CC(=O)c3c(O)cc(O[C@@H]4O[C@H](CO)[C@@H](O)[C@H](O)[C@H]4O[C@@H]4O[C@@H](C)[C@H](O)[C@@H](O)[C@H]4O)cc3O2)cc1O [Neohesperidin],CC50,PK-15 cells,> 1000 µM
O=c1c2cc(O)c(O)cc2oc2cc(O)c([C@@H]3O[C@H](CO)[C@@H](O)[C@H](O)[C@H]3O)c(O)c12 [Mangiferin],CC50,in vitro,> 1050 µM
COc1ccc(-c2oc3c(CC=C(C)C)c(O[C@@H]4O[C@H](CO)[C@@H](O)[C@H](O)[C@H]4O)cc(O)c3c(=O)c2O[C@@H]2O[C@@H](C)[C@H](O)[C@@H](O)[C@H]2O)cc1 [Icariin],CC50,in vitro,> 382 µM
O=c1cc(-c2ccccc2)oc2cc(O)cc(O)c12 [Chrysin],CC50,in vitro,107 µM
O=c1c(O)c(-c2ccc(O)cc2)oc2cc(O)cc(O)c12 [Kaempferol],IC50,[2]; [11],25.6 µM
same,CC50,in vitro,255 µM
C[C@@H]1O[C@@H](OC[C@H]2O[C@@H](Oc3c(-c4ccc(O)c(O)c4)oc4cc(O)cc(O)c4c3=O)[C@H](O)[C@@H](O)[C@@H]2O)[C@H](O)[C@H](O)[C@H]1O [Rutin],CC50,in vitro,> 389 µM
O=C1c2c(O)cc(O)cc2O[C@H](c2cc(O)c(O)c(O)c2)[C@H]1O [Dihydromyricetin],IC50,[2]; [11],161 µM
same,CC50,in vitro,914 µM
O=c1c(O)c(-c2ccc(O)c(O)c2)oc2cc(O)ccc12 [Fisetin],IC50,[2],–^b
same,CC50,in vitro,717 µM
O=c1cc(-c2ccccc2)oc2cc(O)c(O)c(O)c12 [Baicalein],IC50,[2]; read-out: IC50,291 µM
same,mRNA expression level of cGAS,[1],significantly enhance
same,mRNA level of IRF3,[1],no discernible differences
same,mRNA level of STING,[1],significantly increase
same,mRNA levels of IFN-β,[1],significantly elevate
same,CC50,PK-15 cells,563 µM
O=C1C[C@@H](c2ccc(O)cc2)Oc2cc(O)ccc21 [Liquiritigenin],IC50,[2]; read-out: IC50,323 µM
same,CC50,PK-15 cells,790 µM
